Measurements reported in ChEMBL document CHEMBL1156451 (J Biol Chem, 2007).
Converted amounts (≈) assume the structure as drawn. The source made the active and inactive calls. The rule behind the calls is not given here. Where a SMILES comes first, the peptide text is derived from it.

How the values were obtained:
[1] = test system: Brucella abortus; test: Antibacterial activity against Brucella abortus 9.49 (per-) after 48 hrs in Mueller-Hinton broth medium; format: functional
[2] = test system: Bordetella bronchiseptica; test: Antibacterial activity against Bordetella bronchiseptica CUN 11844-99 after 24 hrs in Mueller-Hinton broth medium; format: functional
[3] = test system: Staphylococcus aureus; test: Antibacterial activity against methicillin-resistant Staphylococcus aureus ATCC 43300 after 24 hrs in Mueller-Hinton broth medium; format: functional; settings: ATCC 43300, 24 h
[4] = test system: Pseudomonas aeruginosa; test: Antibacterial activity against Pseudomonas aeruginosa CUN 4158-02 after 24 hrs in Mueller-Hinton broth medium; format: functional
[5] = test system: Escherichia coli; test: Antibacterial activity against Escherichia coli ATCC 25922 after 24 hrs in Mueller-Hinton broth medium; format: functional; settings: ATCC 25922, 24 h
[6] = test system: Acinetobacter baumannii; test: Antibacterial activity against Acinetobacter baumannii ATCC 19606 after 24 hrs in Mueller-Hinton broth medium; format: functional; settings: ATCC 19606, 24 h
[7] = test system: HeLa; test: Cytotoxicity against human HeLa cells at 100 ug/ml after 24 hrs by MTT assay relative to control; format: functional
[8] = test system: Brucella abortus; test: Antibacterial activity against Brucella abortus 9.19 (per-) after 24 hrs in Mueller-Hinton broth medium; format: functional
[9] = test system: Escherichia coli; test: Antibacterial activity against Escherichia coli K12 ATCC 23716 after 24 hrs in Mueller-Hinton broth medium; format: functional; settings: K12, 24 h
[10] = test system: Escherichia coli; test: Antibacterial activity against Escherichia coli K12 ATCC 23716 in 10% Luria-Bertani medium/90% Hepes buffer at pH 7.0; format: functional
[11] = test system: HeLa; test: Cytotoxicity against human HeLa cells at 100 ug/ml after 24 hrs by neutral red uptake assay relative to control; format: functional
[12] = Toxicity in human erythrocytes assessed as hemolysis at 100 ug/ml; format: cell-based, Erythrocyte; settings: read-out: Activity

Row | SMILES | MIC [1] [µg/mL] | MBC [2] [µg/mL] | MIC [2] [µg/mL] | MBC [3] [µg/mL] | MIC [3] [µg/mL] | MBC [4] [µg/mL] | MIC [4] [µg/mL] | MBC [5] [µg/mL] | MIC [5] [µg/mL] | MBC [6] [µg/mL] | MIC [6] [µg/mL] | Activity [7] | MBC [8] [µg/mL] | MBC [9] [µg/mL] | MIC [9] [µg/mL] | MBC [10] [µg/mL] | MIC [10] [µg/mL] | Activity [11] [%] | hemolysis at 100 ug/ml [12] [%]
1 | CC[C@H](C)[C@H](NC(=O)[C@H](CCCNC(=N)N)NC(=O)[C@H](CCCNC(=N)N)NC(=O)[C@H](CO)NC(=O)[C@@H](NC(=O)CNC(=O)[C@H](CCCNC(=N)N)NC(=O)[C@H](CC(C)C)NC(=O)[C@@H](NC(=O)[C@@H](N)CCCNC(=N)N)[C@@H](C)CC)C(C)C)C(=O)N[C@@H](CCSC)C(=O)N[C@@H](CCCNC(=N)N)C(=O)N[C@@H](CCCNC(=N)N)C(=O)N[C@H](C(=O)N[C@@H](CC(C)C)C(=O)N[C@H](C(=O)NCC(=O)N[C@@H](CCCNC(=N)N)C(=O)N[C@@H](CCCNC(=N)N)C(N)=O)[C@@H](C)O)[C@@H](C)CC [RILRGVSRRIM RR ILTGRR] (H-RILRGVSRRIMRRILTGRR-NH2) | 8 (≈ 3.38 µM) | 4 (≈ 1.69 µM) | 4 (≈ 1.69 µM) | 32 (≈ 13.5 µM) | 32 (≈ 13.5 µM) | 128 (≈ 54.1 µM) | 32 (≈ 13.5 µM) | 16 (≈ 6.77 µM) | 16 (≈ 6.77 µM) | 8 (≈ 3.38 µM) | 8 (≈ 3.38 µM) | 6.6% | 32 (≈ 13.5 µM) | 16 (≈ 6.77 µM) | 16 (≈ 6.77 µM) | 16 (≈ 6.77 µM) | 16 (≈ 6.77 µM) | 13.5 | –
2 | CC[C@H](C)[C@H](NC(=O)CN)C(=O)NCC(=O)N[C@@H](C)C(=O)N[C@H](C(=O)N[C@@H](CC(C)C)C(=O)N[C@@H](CCCCN)C(=O)N[C@H](C(=O)N[C@@H](CC(C)C)C(=O)N[C@H](C(=O)N[C@H](C(=O)NCC(=O)N[C@@H](CC(C)C)C(=O)N1CCC[C@H]1C(=O)N[C@@H](C)C(=O)N[C@@H](CC(C)C)C(=O)N[C@H](C(=O)N[C@@H](CO)C(=O)N[C@@H](Cc1c[nH]c2ccccc12)C(=O)N[C@H](C(=O)N[C@@H](CCCCN)C(=O)N[C@@H](CCCNC(=N)N)C(=O)N[C@@H](CCCCN)C(=O)N[C@@H](CCCNC(=N)N)C(=O)N[C@@H](CCC(N)=O)C(=O)N[C@@H](CCC(N)=O)C(N)=O)[C@@H](C)CC)[C@@H](C)CC)[C@@H](C)O)[C@@H](C)O)C(C)C)C(C)C [MELITTIN] | 4 (≈ 1.41 µM) | 4 (≈ 1.41 µM) | 4 (≈ 1.41 µM) | 2 (≈ 0.703 µM) | – | 16 (≈ 5.62 µM) | – | 4 (≈ 1.41 µM) | – | 2 (≈ 0.703 µM) | 2 (≈ 0.703 µM) | 90.1% | 4 (≈ 1.41 µM) | 4 (≈ 1.41 µM) | – | 12.5 (≈ 4.39 µM) | – | 86 | –
3 | CC[C@H](C)[C@H](NC(=O)[C@H](CCCCN)NC(=O)[C@H](CCCCN)NC(=O)[C@H](CO)NC(=O)[C@@H](NC(=O)CNC(=O)[C@H](CC(C)C)NC(=O)[C@@H](NC(=O)[C@@H](N)CCCCN)[C@@H](C)CC)C(C)C)C(=O)N[C@@H](CCSC)C(=O)N[C@@H](CCCNC(=N)N)C(=O)N[C@@H](CCCNC(=N)N)C(=O)N[C@H](C(=O)N[C@@H](CO)C(=O)N[C@@H](CCCCN)C(=O)N[C@@H](CC(=O)O)C(=O)N[C@H](C(=O)N[C@@H](CC(C)C)C(=O)N[C@H](C(=O)NCC(=O)N[C@@H](CCCCN)C(=O)N[C@@H](CCCCN)C(N)=O)[C@@H](C)O)[C@@H](C)CC)[C@@H](C)CC (H-KILGVSKKIMRRISKDILTGKK-NH2) | 16 (≈ 6.37 µM) | 2 (≈ 0.796 µM) | 2 (≈ 0.796 µM) | > 256 | > 256 | 64 (≈ 25.5 µM) | 32 (≈ 12.7 µM) | 32 (≈ 12.7 µM) | 32 (≈ 12.7 µM) | 16 (≈ 6.37 µM) | 16 (≈ 6.37 µM) | inactive | > 256 | 16 (≈ 6.37 µM) | 16 (≈ 6.37 µM) | 12.5 (≈ 4.98 µM) | 6.25 (≈ 2.49 µM) | – | < 5
4 | CC[C@H](C)[C@H](NC(=O)[C@H](CCCCN)NC(=O)[C@H](CCCCN)NC(=O)[C@H](CO)NC(=O)[C@@H](NC(=O)CNC(=O)[C@H](CCCNC(=N)N)NC(=O)[C@H](CC(C)C)NC(=O)[C@@H](NC(=O)[C@@H](N)CCCCN)[C@@H](C)CC)C(C)C)C(=O)N[C@@H](CCSC)C(=O)N[C@@H](CCCNC(=N)N)C(=O)N[C@@H](CCCNC(=N)N)C(=O)N[C@H](C(=O)N[C@@H](CC(C)C)C(=O)N[C@H](C(=O)NCC(=O)N[C@@H](CCCCN)C(=O)N[C@@H](CCCCN)C(N)=O)[C@@H](C)O)[C@@H](C)CC (H-KILRGVSKKIMRRILTGKK-NH2) | 64 (≈ 28.8 µM) | 4 (≈ 1.8 µM) | 4 (≈ 1.8 µM) | > 256 | > 256 | 32 (≈ 14.4 µM) | 32 (≈ 14.4 µM) | 32 (≈ 14.4 µM) | 32 (≈ 14.4 µM) | 2 (≈ 0.899 µM) | 2 (≈ 0.899 µM) | inactive | 128 (≈ 57.5 µM) | 64 (≈ 28.8 µM) | 64 (≈ 28.8 µM) | 32 (≈ 14.4 µM) | 16 (≈ 7.19 µM) | – | < 5
5 | CC[C@H](C)[C@H](N)C(=O)N[C@@H](CO)C(=O)N[C@@H](CCCCN)C(=O)N[C@@H](CCCNC(=N)N)C(=O)N[C@H](C(=O)N[C@@H](CC(C)C)C(=O)N[C@H](C(=O)NCC(=O)N[C@@H](CCCCN)C(=O)N[C@@H](CCCCN)C(=O)O)[C@@H](C)O)[C@@H](C)CC (H-ISKRILTGKK-OH) | > 64 | > 256 | > 256 | > 256 | > 256 | > 256 | > 256 | > 256 | > 256 | > 256 | > 256 | inactive | > 256 | > 256 | > 256 | > 200 | > 200 | – | < 5
